Laboratory results: patent US8609083B1, “Method for controlling fungal pathogen with bacterial metabolite” (The United States of America, as represented by the …, priority 2007, dated 2013)

Tested on: F. effusum
Assay: Suppression of F. effusum sporulation on pecan terminal shoots
Format: in vivo, Fusicladosporium effusum
Details: 72 hours at 25° C.; for suppression of F. effusum sporulation, Abbott's formula relative to the acetone control: undiluted metabolites or fungicide products
Procedure: Dormant twigs with spore lesion constitute a primary source of scab infestation in pecan orchards. Scab disbursal via twig lesion sporulation occurs in early spring when temperatures are optimal. […] The shoots were selected for uniformity in diameter, cut into 5 cm segments, and placed into 1.5×10 cm test tubes.
Pecan shoots were sonicated for 30 minutes in 6 ml of 1% TWEEN 20 solution (polyoxyehtylene (20) sorbitan monolaurate). The number of spores released per lesion was counted via a hemocytometer. […]. A portion of the shoots were sonicated and counted prior to exposure to fungicidal treatments to verify that the shoots had not sporulated. The initial shoots lesions were designated as the baseline treatment.
Shoots were exposed to the following fungicidal treatments: undiluted metabolites derived from either P. luminescens (Hb) or X. bovienii (SN), and three chemical fungicide products used for control of F. effusum, i.e., dodine (Dodine 65W, 65% active ingredient, wettable powder, Platte Chemical Co. Greeley, Colo.), fenbuconazole (ENABLE 2F, 240 grams/liter active ingredient, flowable, Dow AgroSciences, Indianapolis Ind.), and triphenyltin hydroxide (SUPERTIN, 80% active ingredient, wettable powder, Griffin L. L. C., Valdosta, Ga.). The bacteria P. luminescens (Hb) was isolated from Heterorhabditis bacteriophora Poinar. The bacteria X. bovienii (SN) was isolated from Steinernema feltiae (Filipjev).
The shoots were also exposed to a water control and acetone control. Acetone was used as a solvent for the metabolites. The treatments were applied using an airbrush sprayer. The shoots were incubated at 25° C. for 72 hours, and exposed to sonification and quantification of spores. Ten replicate shoots for each treatment and the experiment was repeated once.

SMILES | suppression of F. effusum sporulation, Abbott's formula relative to the acetone control | sporulation of F. effusum on pecan shoots relative to the acetone or water control (FIG. 3)
CCCCCCCCCCCCNC(=N)N [dodine] | 49.6% | 
N#CC(CCc1ccc(Cl)cc1)(Cn1cncn1)c1ccccc1 (stereo not drawn) [fenbuconazole] | 80.4% | 
[OH][Sn]([c]1ccccc1)([c]1ccccc1)[c]1ccccc1 [triphenyltin hydroxide] |  | No effect was detected
